Measurements as given in US20100015249A1, “Antitumor agent containing 6'-amidino-2'-naphthyl 4-guanidinobenzoate or salt thereof” (priority 2005, published 2010).

Tests used:
TNFRI = TNFRI expression by Northern blot and Western blot; type: cell-based, human
Method: A cDNA probe for hybridization was constructed by the following method. After FUT treatment, RNA was extracted from the human pancreas cancer cell line […]-28 by using TRIZOL Reagent (Life Technologies, Inc.) 15 μg of RNA was subjected to electrophoresis on a 1% denatured formaldehyde agarose gel and transferred to a nylon membrane. RT-PCR was performed in order to construct a cDNA probe to be used for the detection of TNFRI mRNA. With this RT-PCR, primers represented by SEQ ID Nos: 5 and 6 were used. The obtained cDNA was inserted into the pCR2.1-TOPO vector. […] The obtained cDNA probe was labeled with α-^32P dCTP by using the random labeling kit (Roche) and used for hybridization. The expression of TNFRI mRNA was confirmed by Northern blot method with the above mentioned probe according to the method generally known. […] Also, TNFRI expression on the cell surface was detected by Western blot method. More specifically, the experiment was performed by the method similar to the method described in Example 2. Mouse monoclonal anti-TNFR1 (H-5; Santa Cruz Biotechnology) was used for detection.

PEA3 = PEA3 expression after FUT treatment; type: cell-based, human; details: MDAPanc-28, over time
IKK1 = target: T1, IKK1 (Homo sapiens, UniProt O15111); assay: IKK immunoprecipitation kinase assay and Western blot after FUT treatment of cells; type: cell-based
T1 construct: endogenous in cells; host or cells: MDAPanc-28 (human pancreas cancer cell line)
Method: (§1) After FUT treatment, the human pancreas cancer cell line […]-28 was rinsed with ice-cold PBS to prepare 800 μg of cytoplasmic fraction. After adding glutathione sepharose beads (Amersham Pharmacia Biotech), the sample was invertedly mixed at 4° C. for 3 hours to remove non-specific absorption fractions. 4 μg of anti-IKK1/2 antibody (Santa Cruz Biotechnology) were added to the supernatant for reaction at 4° C. overnight. After adding glutathione sepharose beads, the sample was further mixed at 4° C. for 3 hours. The beads containing bound immunocomplex were rinsed twice with PBS and then subjected to immunoprecipitation and measurements of enzyme activity. To conduct the measurements of enzyme activity, the above mentioned beads were rinsed with kinase buffer (25 mM HEPES containing 150 mM NaCl, 25 mM beta-glycerophosphate and 10 mM MgCl2) to perform enzyme reaction. 5 uCi of ^32P-labeled y-ATP and 1 μg of the substrate GST-IκBα were reacted in the kinase buffer for 30 minutes at 37° C. The reaction was terminated by adding SDS sample buffer. The sample was analyzed by SDS-PAGE followed by autoradiography for detection.

IKK2 = target: T2, IKK2 (Homo sapiens, UniProt O14920); assay: as above; type: cell-based
T2 construct: endogenous in cells; host or cells: MDAPanc-28 (human pancreas cancer cell line)
Method: as §1

NF-κB = assay: Gel shift assay of gemcitabine-induced NF-κB activation; type: cell-based, human; details: MDAPanc-28, pretreatment 3 hours then gemcitabine 3 hours
Method: At the same time, the present inventors also made a comparison with the other NF-κB inhibitors PS1145 and PS341. […] Subsequently, a gel shift assay was performed to examine the effect on NF-κB activation.

[1] = tested on: human pancreas cancer cell line MDAPanc-28; assay: DNA fragmentation assay (apoptosis); type: cell-based; details: MDAPanc-28
Method: After adding 1000 U/ml of protease K, the sample was further incubated for 5 hours at 50° C. After extracting DNA with phenol/chloroform/isoamyl alcohol, isopropanol and ammonium acetate were added to the collected water-soluble fractions in order to collect precipitates. The precipitates were then rinsed with 70% ethanol and dissolved in Tris-EDTA buffer. Electrophoresis was performed on a 2% agarose gel and DNA bands were confirmed by using ethidium bromide. The present inventors examined the concomitant effect of FUT and TNF-α on apoptosis in cancer cells. After treatment with TNF-α for 24 hours, the human pancreas cancer cell line […]-28 was further cultured for 24 hours with various concentrations of FUT being added. Cells prepared were then subjected to an MTT assay according to the method generally known to calculate the cell survival rates. Also, DNA was extracted to perform a DNA fragmentation assay. More specifically, with regard to the MTT assay, each well was seeded with 2000 cells per 100 μl of culture medium in a 96-well microtiterplate, followed by the above mentioned treatment. […] The absorbance of the samples was measured at 570 nm by using a microplate reader. […] Two independent experiments were performed, and the average was calculated. […]

jBid = assay: Western blot of Bid / jBid; type: cell-based, human; details: MDAPanc-28, FUT 80 μg/ml, 0 to 24 hours
Method: The present inventors examined whether apoptosis signaling cascade is triggered with the elevation of TNFRI expression induced by FUT treatment, using caspase 8 as an indicator. Cytoplasmic fraction was prepared from the human pancreas cancer cell line […]-28 treated with various concentrations of FUT for 24 hours. Western blot was performed and subjected to the detection with anti-caspase 8 antibody (Santa Cruz Biotechnology) (FIG. 6-a). Western blot was performed to examine temporal changes in the expression of caspase 8, p-FADD, Bid and jBid under a constant concentration of FUT (80 μg/ml) at short intervals from 0 to 24 hours of treatment (FIGS. 6-b, 6-c and 6-d). Anti-FADD antibody was obtained from Santa Cruz Biotechnology and anti-Bid antibody was obtained from BD Pharmingen.

[2] = tested on: human pancreas cancer cell line MDAPanc-28; assay: Matrigel infiltration assay; type: cell-based; details: MDAPanc-28 pretreated with 80 μg/ml FUT for 24 hours, 22-hour incubation in matrigel-coated chamber
Method: A matrigel infiltration assay was performed to examine an inhibitory effect on infiltration in the human pancreas cancer cell line MDAPanc-28 by FUT treatment. Cells treated with 80 μg/ml of FUT for 24 hours and untreated cells were respectively inoculated to a matrigel-coated chamber at a concentration of 20000 cells per well for a 22-hour incubation at 37° C. either in the presence or absence of 80 μg/ml of FUT. The numbers of infiltrated cells were then counted under the microscope after Wright-Giemsa staining according to the method generally known.

[3] = MDAPanc-28 cytoplasmic fraction, before and after FUT treatment
[4] = immunoprecipitate from FUT-treated MDAPanc-28, substrate GST-IκBα

T1 sequence (O15111 whole entry): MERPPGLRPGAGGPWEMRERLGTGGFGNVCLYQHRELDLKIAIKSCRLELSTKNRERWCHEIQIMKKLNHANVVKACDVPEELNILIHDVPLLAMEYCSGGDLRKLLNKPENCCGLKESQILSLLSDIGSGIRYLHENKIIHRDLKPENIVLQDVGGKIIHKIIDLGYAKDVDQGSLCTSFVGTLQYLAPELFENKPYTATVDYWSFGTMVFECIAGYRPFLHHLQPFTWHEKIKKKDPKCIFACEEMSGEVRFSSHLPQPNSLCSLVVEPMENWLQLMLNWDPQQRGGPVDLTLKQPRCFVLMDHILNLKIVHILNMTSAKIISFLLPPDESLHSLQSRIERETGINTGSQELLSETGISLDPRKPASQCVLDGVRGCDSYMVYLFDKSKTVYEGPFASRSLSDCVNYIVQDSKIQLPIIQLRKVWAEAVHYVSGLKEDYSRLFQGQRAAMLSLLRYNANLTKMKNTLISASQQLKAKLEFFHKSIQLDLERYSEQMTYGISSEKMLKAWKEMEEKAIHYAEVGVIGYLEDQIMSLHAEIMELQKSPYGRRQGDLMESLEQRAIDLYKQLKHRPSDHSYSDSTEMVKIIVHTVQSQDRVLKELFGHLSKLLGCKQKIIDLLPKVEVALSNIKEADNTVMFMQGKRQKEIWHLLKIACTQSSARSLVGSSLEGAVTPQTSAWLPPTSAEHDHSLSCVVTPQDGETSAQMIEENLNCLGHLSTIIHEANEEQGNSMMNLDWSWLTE
T1 sequence (O14920 whole entry partner): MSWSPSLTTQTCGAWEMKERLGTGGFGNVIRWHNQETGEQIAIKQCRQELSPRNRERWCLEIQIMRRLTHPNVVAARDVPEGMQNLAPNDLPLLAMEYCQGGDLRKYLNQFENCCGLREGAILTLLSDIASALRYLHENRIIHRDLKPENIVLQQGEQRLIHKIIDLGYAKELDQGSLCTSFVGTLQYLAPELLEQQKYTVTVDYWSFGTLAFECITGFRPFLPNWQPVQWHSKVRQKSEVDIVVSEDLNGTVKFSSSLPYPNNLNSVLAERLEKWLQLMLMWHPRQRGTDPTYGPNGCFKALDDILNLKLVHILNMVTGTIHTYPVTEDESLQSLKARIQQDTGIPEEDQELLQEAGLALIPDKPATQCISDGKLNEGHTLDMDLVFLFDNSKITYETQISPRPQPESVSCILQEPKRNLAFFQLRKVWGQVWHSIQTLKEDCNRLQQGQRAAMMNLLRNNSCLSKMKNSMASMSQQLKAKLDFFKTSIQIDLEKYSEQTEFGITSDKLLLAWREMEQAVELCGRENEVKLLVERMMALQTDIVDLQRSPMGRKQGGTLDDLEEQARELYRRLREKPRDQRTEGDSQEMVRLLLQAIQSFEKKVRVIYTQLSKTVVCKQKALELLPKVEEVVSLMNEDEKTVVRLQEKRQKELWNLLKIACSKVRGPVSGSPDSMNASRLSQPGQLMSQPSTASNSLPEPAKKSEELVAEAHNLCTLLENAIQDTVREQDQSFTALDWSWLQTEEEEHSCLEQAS
T1 sequence (Q9Y6K9 whole entry partner): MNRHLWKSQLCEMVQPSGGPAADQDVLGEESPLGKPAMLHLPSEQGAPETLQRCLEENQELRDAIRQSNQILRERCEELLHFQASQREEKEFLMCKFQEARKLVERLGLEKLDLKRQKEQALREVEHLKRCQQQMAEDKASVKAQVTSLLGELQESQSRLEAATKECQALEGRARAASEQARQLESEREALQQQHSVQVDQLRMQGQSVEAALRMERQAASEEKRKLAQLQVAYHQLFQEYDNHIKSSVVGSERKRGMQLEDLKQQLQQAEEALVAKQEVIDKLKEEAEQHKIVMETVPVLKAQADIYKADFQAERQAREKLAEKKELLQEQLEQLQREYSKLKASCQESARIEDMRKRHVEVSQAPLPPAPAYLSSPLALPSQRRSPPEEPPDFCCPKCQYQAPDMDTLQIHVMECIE
T2 sequence (O14920 whole entry): as the sequence (O14920 whole entry partner) above
T2 sequence (O15111 whole entry partner): as the sequence (O15111 whole entry) above
T2 sequence (Q9Y6K9 whole entry partner): as the sequence (Q9Y6K9 whole entry partner) above

## N=C(N)c1ccc2cc(OC(=O)c3ccc(N=C(N)N)cc3)ccc2c1 [FUT, 6-amidino-2-naphthyl p-guanidinobenzoate dimethanesulfonate]
TNFRI; MDAPanc-28, Northern blot
  level of TNFRI mRNA expression: increased in a FUT concentration-dependent manner
TNFRI; MDAPanc-28, Western blot
  TNFRI expression on the cell surface: increased TNFRI expression on the cell surface
PEA3
  PEA3 expression: increased PEA3 expression overtime
IKK1; [3]
  expression level of IKK1: remain intact
IKK1; [4]
  enzyme activity of IKK1: reduces the enzyme activities of IKK1 and IKK2
IKK2; [3]
  expression level of IKK2: remain intact
IKK2; [4]
  enzyme activity of IKK2: reduces the enzyme activities of IKK1 and IKK2
NF-κB
  effect on gemcitabine-induced activation of NF-κB: had an inhibitory effect on gemcitabine-induced activation of NF-κB
  inhibitory effect on gemcitabine-induced NF-κB activation compared among FUT, PS1145 and PS341: most significant
[1]
  concentration at which DNAs were fragmented (apoptosis induction): ≥ 40 µg/mL
jBid
  expression of JBid, the degradation product of Bid: overtime increase in the expression of JBid
[2]
  infiltration (number of infiltrated cells): significant inhibitory effect on infiltration
